# Laboratory results published in patent US10220069B2, “Compositions and methods for treating diabetes” (THE JOHNS HOPKINS UNIVERSITY, priority 2014, dated 2019).
# Biological target: T1, Gcgr (Mus musculus, UniProt Q61606)
# T1 construct: endogenous in cells; host or cells: live mice (WT, Gcgrfl/fl, HFD-fed C57Bl/6, Lepr db/db); hepatic receptor
# Assay: Gcgr antagonist GAI or inactive analog GAC 60 min before ipGTT in HFD and Lepr db/db mice
# Assay type: in vivo
# Experimental: Intraperitoneal glucose tolerance (ipGTT) and insulin tolerance (ipITT) tests were performed according to standard protocols (Song et al., 2013; Song et al., 2011). After 9 am-3 pm fasting, animals were administered 20% D-glucose (via ip injection), insulin 0.5 U/kg i.p. (Novolin), glucagon (100 μg/kg i.p. (Sigma)). […] The glucagon receptor antagonist GAI (N-(3-Cyano-6-(1,1-dimethylpropyl)-4,5,6,7-tetrahydro-1-benzothien-2-yl)-2-ethylbutanamide (Qureshi et al., 2004) and its non-active analogue were administered (50 mg/kg i.p. in DMSO) in HFD fed and Lepr^db/db mice 60 min before i. GTT. Intraperitoneal pyruvate converstion (1 g/kg i.p.) test (ipPCT) in ΔL-Prkar1a mice was performed in the fed state (9 am) to avoid any confounding effects of fasting-induced elevated endogenous glucagon levels. Tail-vein blood was collected at the indicated times in figures for glucose and insulin measurements. Serum insulin was measured using mouse magnetic bead panel (Millipore, Luminex). Plasma for glucagon measurements was drawn from mice in the fed state at 9 am, unless otherwise noted for fasting studies. Plasma glucagon (Alpco) and kisspeptin1 (USCN Life Sciences Inc. E92559Ra) were measured by ELISA according to manufacturer's instructions including dilution of samples.
# Liver Kiss1 Upregulation is Linked to Hyperglucagonemia in DM.
# T1 sequence (Q61606 27-485): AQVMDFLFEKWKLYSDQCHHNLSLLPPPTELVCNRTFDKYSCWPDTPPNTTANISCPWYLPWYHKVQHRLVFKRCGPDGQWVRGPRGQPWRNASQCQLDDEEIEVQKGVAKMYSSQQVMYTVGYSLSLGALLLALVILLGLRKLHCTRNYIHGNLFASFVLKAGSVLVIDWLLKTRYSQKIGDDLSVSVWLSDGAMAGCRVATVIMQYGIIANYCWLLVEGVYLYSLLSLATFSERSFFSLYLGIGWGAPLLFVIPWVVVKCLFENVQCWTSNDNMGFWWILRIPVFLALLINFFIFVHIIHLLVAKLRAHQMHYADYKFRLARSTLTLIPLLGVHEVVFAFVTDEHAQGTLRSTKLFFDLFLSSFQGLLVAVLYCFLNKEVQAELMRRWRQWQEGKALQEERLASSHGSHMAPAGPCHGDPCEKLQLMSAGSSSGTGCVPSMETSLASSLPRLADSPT
compound,measurement,setting,value
"CCC(CC)C(=O)Nc1sc2c(c1C#N)CCC(C(C)(C)CC)C2 (stereo not drawn) [GAI, N-(3-Cyano-6-(1,1-dimethylpropyl)-4,5,6,7-tetrahydro-1-benzothien-2-yl)-2-ethylbutanamide]",liver Kiss1 expression,HFD and Lepr db/db mice,reduction
same,"liver gluconeogenic gene expression (Pparg1a, Src1, G6P, Pck1 mRNA)",HFD and Lepr db/db mice,reduction
same,liver pCREB,HFD and Lepr db/db mice,corresponding reductions
same,CREB occupancy of CRE 1 and 2 in the Kiss1 promoter,"HFD and Lepr db/db mice, in vivo ChIP",reduces CREB occupancy
same,basal glycemia and GT,"HFD and Lepr db/db mice, single dose 50 mg/kg i.p. 60 min before ipGTT, versus GAC",improved basal glycemia as well as GT
same,circulating plasma glucagon levels,"HFD fed and Lepr db/db mice, fed state, 60 min after treatment",remained unchanged
